Laboratory results published in publication PMC6920499, “Sustainability potentials of novel laccase tinctures from Stenotrophomonas maltophilia BIJ16 and Bordetella bronchiseptica HSO16: From dye decolourization to denim bioscouring” (Biotechnology Reports, 2019).

Assays:
[1] = tested on: T1, Bordetella sp. HSO16 laccase (Hb16c laccase); experiment: ABTS oxidation at […] nm, Lineweaver-Burk; type: biochemical; conditions: crude laccase; standard assay potassium phosphate pH 6, 30 °C
T1 construct: gene cueO; crude culture supernatant, native secreted laccase, not purified; several laccase-like genes inferred by PCR
Text: HSO16 laccase (Hb16c laccase)

[2] = tested on: T2, Stenotrophomonas sp. BIJ16 laccase (Berl1^1b2 laccase); experiment: ABTS oxidation at […] nm, Lineweaver-Burk; type: biochemical; conditions: crude laccase; standard assay potassium phosphate pH 6, 30 °C
T2 construct: gene MCOStm; crude culture supernatant, native secreted laccase, not purified; several laccase-like genes inferred by PCR
Text: BIJ16 laccase (Berl1^1b2 laccase)

`CCn1c(=NN=c2sc3cc(S(=O)(=O)O)ccc3n2CC)sc2cc(S(=O)(=O)O)ccc21` [ABTS, 2,2’-azino-bis (3-ethylbenzothiazoline-6-sulfonic acid)] showed a Km [1] of 1.09 µM and a Km [2] of 0.636 µM.
